The target in the assay is Voltage-gated calcium channel. Briefly: Functional Drug Screening System (FDSS): Calcium mobilization responses to KCl depolarization were evaluated by measuring the intensity of calcium-mediated fluorescent signal in the presence of BD Calcium Assay Dye (BD Biosciences, Franklin Lakes, N.J., U.S.A.), utilizing a Functional Drug Screening System (FDSS) by Hamamatsu Corporation (Bridgewater, N.J. U.S.A.).Twenty-four hr prior to assay, cells were seeded in clear-base poly-D-lysine-coated 384-well plates (BD Biosciences) at a density of 5,000 cells per well in culture medium and grown overnight in 5% CO2 at 37° C. On the day of assay, growth media were removed, and cells were loaded with BD calcium assay dye (BD Biosciences) for 35 min at 37° C. under 5% CO2 and then for 25 min at room temp. Utilizing the FDSS, cells were exposed to representative compounds of Formula (I) at varying concentrations, and intracellular calcium was measured for 5 min prior to the addition of 50 mM KCl for an additional 3 min of measurement. In kind it is cell-based. For orientation: Calcium assays in cells follow changes in intracellular calcium, usually with a dye or a luminescent sensor.

By IC50 is commonly meant the concentration that inhibits the measured activity by half.

Regarding `COc1ccccc1-n1nc(OC2CC(C)(C)C(=O)C(C)(C)C2)cc1-c1ccc(Cl)cc1`, the IC50 amounted to 9.7 nM.

Source of the values: ChEMBL document CHEMBL3886921, “Substituted pyrazoles as N-type calcium channel blockers” (2016).
